Data as given in publication PMC9800739, “Epigenetic drugs in somatostatin type 2 receptor radionuclide theranostics and radiation transcriptomics in mouse pheochromocytoma models” (Theranostics, 2023).
Entries after “also recorded” stand apart in the source; their conditions may differ. Read-outs that look alike come from different tables or passages of the source.

Experiments:
SSTR2 [1] = target: T1, SSTR2 (Mus musculus, UniProt P30875); test: [68Ga]Ga-DOTA-TATE radioligand uptake in cells; format: cell-based; details: MPC cells; 37 °C; VPA 10^-3 mol/L; DAC 5×10^-7 mol/L; attributed to cytotoxic effects
T1 construct: endogenous in cells; host or cells: MPC and MTT mouse pheochromocytoma cells (cell homogenates), untreated or treated with VPA + DAC
Description: Cells were seeded into collagen-coated microplates or collagen-coated flasks 24 h before epigenetic treatment (ET) start and treated twice (24 h interval) with VPA and DAC, as single and combination doses, respectively. Treatment effects were investigated two to six days (d) after final ET. Preparation of epigenetic drugs is reported in Supplemental Information 1.1.
Radionuclide production and supply are described in Supplemental Information 1.2.
Cells were seeded into collagen-coated 24-well microplates (2.5×10^4/cm^2) and uptake of [^68Ga]Ga-DOTA-TATE was measured three and seven days after ET start. Cells were incubated with fresh cell culture medium containing 0.8 MBq/mL [^68Ga]Ga-DOTA-TATE (Am = 10 MBq/nmol), equivalent to 80 nmol/L, for 60 min at 4 °C or 37 °C. Cells were washed and lysed, and activity of cell lysates was measured as described previously. Total protein in cell lysates was measured using the Qubit protein assay (Thermo Fisher Scientific). Uptake of [^68Ga]Ga-DOTA-TATE was reported as % initial dose per mg of protein.

MPC tumors = format: in vivo, mouse; details: MPC
Description: During anesthesia, animals were continuously warmed at 37°C. […] Animals were sacrificed using CO2 inhalation and cervical dislocation.
107 (30%), muscle (0%), kidneys (25%), and liver (35%).
116 attenuation. Images were post-processed and analyzed using ROVER (ABX). Three-
118 kidneys (15%), and liver (25%). […]

MPC and MTT cells = test: Viability assay (colorimetric tetrazolium dye); format: cell-based, mouse; details: MPC and MTT cells (similar); three days after treatment start; two treatments at 24 h interval
Description: Viability of cells seeded into collagen-coated 96-well microplates (6×10^4/cm^2) was measured three days after treatment start using a colorimetric tetrazolium dye assay [39]. Doxorubicin served as positive control.

MTT tumors = details: for SUVmean tumor / SUVmax ratio tumor / muscle / SUVmax tumor / SUVmean ratio tumor / muscle: MTT
Description: All animal experiments were carried out according to the guidelines of the German Regulations for Animal Welfare and have been approved by the local Ethical Committee for Animal Experiments. A number of 4×10^6 MPC or MTT cells were re-suspended in 40 µL of Dulbecco's phosphate-buffered saline and injected subcutaneously into the shoulder of 10-15 week-old female nude mice (Rj:NMRI-Foxn1^nu/nu, Janvier Labs, Le Genest-Saint-Isle, France). Prior to imaging procedures, general anesthesia was induced and maintained with inhalation of 10% (v/v) desflurane in 30/10% (v/v) oxygen/air. During anesthesia, animals were continuously warmed at 37°C. Tumor growth was monitored three times per week using caliper measurements. Tumor volume was calculated assuming a tri-axial ellipsoid with the axes a, b, and c using the formula V = π/6×abc. Animals were sacrificed using CO2 inhalation and cervical dislocation.
Preparation of epigenetic drugs is described in Supplemental Information 1.1. Animals received VPA (1.7×10^‒3 mol/kg ≈ 250 mg/kg), DAC ([…] ≈ 1 mg/kg), or a combination of both, in Dulbecco's phosphate buffered saline (200 µL/30 g body weight), delivered as two consecutive intraperitoneal injections in a 72 h-interval. Applied doses were within the epigenetically effective dose range in mice, as reported elsewhere, [41]-[43]. The estimated human equivalent doses corresponded to 20‒30% of the clinically applied tumor-suppressive doses in patients, [45]. Animals in control groups received Dulbecco's phosphate buffered saline only. Multiple independent experiments were performed, always including animals of all treatment groups (Table 1).
Small animal positron emission tomography (PET) was performed using the nanoPET/CT scanner (Mediso Medical Imaging Systems, Budapest, Hungary). […] Recording, binning, framing, and image reconstruction were performed as reported previously. Dynamic imaging was performed for 60 min, static imaging between 40‒60 min after radiotracer injection. With each PET scan, a corresponding CT image was recorded and used for anatomical referencing and attenuation correction. […] Standardized uptake values (SUV) were determined and reported as SUVmean (VOI-averaged) and SUVmax (VOI-maximum). Details on quantitative PET image analysis are provided in Supplemental Information 1.4.
106 (VOIs) were created (40‒60 min frames) applying fixed thresholds for delineation of tumor
107 (30%), muscle (0%), kidneys (25%), and liver (35%). […]

SSTR2 [2] = details: cited from earlier work
Text: HDAC and DNMT inhibitors can have different impacts depending on the cellular background. For example, in QGP-1 cells, DAC induced, but VPA inhibited SSTR2 gene expression.

T1 sequence (P30875 whole entry): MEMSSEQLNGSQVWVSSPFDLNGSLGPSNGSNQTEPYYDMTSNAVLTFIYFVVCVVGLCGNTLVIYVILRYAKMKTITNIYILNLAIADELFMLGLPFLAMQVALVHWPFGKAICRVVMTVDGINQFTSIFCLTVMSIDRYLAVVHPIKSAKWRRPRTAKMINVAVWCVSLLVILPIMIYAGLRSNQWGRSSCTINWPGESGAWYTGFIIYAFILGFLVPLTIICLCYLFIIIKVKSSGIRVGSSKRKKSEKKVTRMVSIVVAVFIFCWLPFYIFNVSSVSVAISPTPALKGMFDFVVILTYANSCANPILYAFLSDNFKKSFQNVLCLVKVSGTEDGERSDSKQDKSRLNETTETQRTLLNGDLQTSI

Nc1ncn([C@H]2C[C@H](O)[C@@H](CO)O2)c(=O)n1 [DAC, 5-Aza-2'-deoxycytidine]
[68Ga]Ga-DOTA-TATE uptake (effect) (SSTR2 [1]): impairment of [68Ga]Ga-DOTA-TATE uptake; also recorded: reduced radiotracer uptake at 37 °C
SUVmean tumor (MPC tumors; [64Cu]Cu-DOTA-TATE, 40‒60 min p.i., day 1 after final ET, control or VPA 250 mg/kg, DAC 1 mg/kg days −3 and 0, mean ± SEM): 7.38 ± 0.74
SUVmax ratio tumor / muscle (MPC tumors; animal 1, 40‒60 min p.i.): 57.8
SUVmax tumor (MPC tumors; animal 1, 40‒60 min p.i.): 11.5
SUVmean ratio tumor / muscle (MPC tumors; animal 1, 40‒60 min p.i.): 68.2
SUVmean tumor (MPC tumors; animal 1, 40‒60 min p.i.): 5.09
SUVmax ratio tumor / muscle (MPC tumors; animal 2, 40‒60 min p.i.): 65.6
SUVmax tumor (MPC tumors; animal 2, 40‒60 min p.i.): 13.9
SUVmean ratio tumor / muscle (MPC tumors; animal 2, 40‒60 min p.i.): 96.7
SUVmean tumor (MPC tumors; animal 2, 40‒60 min p.i.): 6.74
SUVmax ratio tumor / muscle (MPC tumors; animal 3, 40‒60 min p.i.): 58.7
SUVmax tumor (MPC tumors; animal 3, 40‒60 min p.i.): 15.3
SUVmean ratio tumor / muscle (MPC tumors; animal 3, 40‒60 min p.i.): 93.2
SUVmean tumor (MPC tumors; animal 3, 40‒60 min p.i.): 7.52
SUVmax ratio tumor / muscle (MPC tumors; animal 4, 40‒60 min p.i.): 69.1
SUVmax tumor (MPC tumors; animal 4, 40‒60 min p.i.): 15.2
SUVmean ratio tumor / muscle (MPC tumors; animal 4, 40‒60 min p.i.): 80.6
SUVmean tumor (MPC tumors; animal 4, 40‒60 min p.i.): 7.99
SUVmax ratio tumor / muscle (MPC tumors; animal 5, 40‒60 min p.i.): 67.9
SUVmax tumor (MPC tumors; animal 5, 40‒60 min p.i.): 20.6
SUVmean ratio tumor / muscle (MPC tumors; animal 5, 40‒60 min p.i.): 104
SUVmean tumor (MPC tumors; animal 5, 40‒60 min p.i.): 9.57
SUVmax ratio tumor / muscle (MPC tumors; as SUVmean, mean ± SEM): 63.8 ± 2.35
SUVmax tumor (MPC tumors; as SUVmean, mean ± SEM): 15.3 ± 1.49
SUVmean ratio tumor / muscle (MPC tumors; as SUVmean, mean ± SEM): 88.6 ± 6.39
LD50 (MPC and MTT cells): 6.3e-07 mol/L
increase of average SUVmean of tumors vs control cohort (MTT tumors; MTT tumors, VPA 250 mg/kg, DAC 1 mg/kg, single or combination, i.p. twice at 72 h interval, DAC P < 0.05, combination P < 0.01): 1.7 fold
SUVmean tumor (MTT tumors; [64Cu]Cu-DOTA-TATE, 40‒60 min p.i., day 1 after final ET, control or VPA 250 mg/kg, DAC 1 mg/kg days −3 and 0, mean ± SEM, DAC P < 0.05, VPA+DAC P < 0.001): 0.88 ± 0.13
SUVmax ratio tumor / muscle (MTT tumors; animal 1, 40‒60 min p.i.): 4.01
SUVmax tumor (MTT tumors; animal 1, 40‒60 min p.i.): 0.83
SUVmean ratio tumor / muscle (MTT tumors; animal 1, 40‒60 min p.i.): 4.91
SUVmean tumor (MTT tumors; animal 1, 40‒60 min p.i.): 0.38
SUVmax ratio tumor / muscle (MTT tumors; animal 2, 40‒60 min p.i.): 6.62
SUVmax tumor (MTT tumors; animal 2, 40‒60 min p.i.): 1.52
SUVmean ratio tumor / muscle (MTT tumors; animal 2, 40‒60 min p.i.): 7.82
SUVmean tumor (MTT tumors; animal 2, 40‒60 min p.i.): 0.65
SUVmax ratio tumor / muscle (MTT tumors; animal 3, 40‒60 min p.i.): 5.31
SUVmax tumor (MTT tumors; animal 3, 40‒60 min p.i.): 1.66
SUVmean ratio tumor / muscle (MTT tumors; animal 3, 40‒60 min p.i.): 8.27
SUVmean tumor (MTT tumors; animal 3, 40‒60 min p.i.): 0.77
SUVmax ratio tumor / muscle (MTT tumors; animal 4, 40‒60 min p.i.): 11.0
SUVmax tumor (MTT tumors; animal 4, 40‒60 min p.i.): 2.00
SUVmean ratio tumor / muscle (MTT tumors; animal 4, 40‒60 min p.i.): 12.6
SUVmean tumor (MTT tumors; animal 4, 40‒60 min p.i.): 0.80
SUVmax ratio tumor / muscle (MTT tumors; animal 5, 40‒60 min p.i.): 7.68
SUVmax tumor (MTT tumors; animal 5, 40‒60 min p.i.): 1.88
SUVmean ratio tumor / muscle (MTT tumors; animal 5, 40‒60 min p.i.): 11.5
SUVmean tumor (MTT tumors; animal 5, 40‒60 min p.i.): 0.93
SUVmax ratio tumor / muscle (MTT tumors; animal 6, 40‒60 min p.i.): 14.7
SUVmax tumor (MTT tumors; animal 6, 40‒60 min p.i.): 2.71
SUVmean ratio tumor / muscle (MTT tumors; animal 6, 40‒60 min p.i.): 17.9
SUVmean tumor (MTT tumors; animal 6, 40‒60 min p.i.): 1.24
SUVmax ratio tumor / muscle (MTT tumors; animal 7, 40‒60 min p.i.): 18.9
SUVmax tumor (MTT tumors; animal 7, 40‒60 min p.i.): 2.72
SUVmean ratio tumor / muscle (MTT tumors; animal 7, 40‒60 min p.i.): 21.3
SUVmean tumor (MTT tumors; animal 7, 40‒60 min p.i.): 1.37
SUVmax ratio tumor / muscle (MTT tumors; as SUVmean, mean ± SEM): 9.74 ± 2.05
SUVmean ratio tumor / muscle (MTT tumors; as SUVmean, mean ± SEM, DAC P < 0.05): 12.1 ± 2.2
SUVmax tumor (MTT tumors; as SUVmean, mean ± SEM, VPA+DAC P < 0.01): 1.90 ± 0.25
percentage of MTT responders (SUV) (MTT tumors; n = 7 per cohort, threshold control mean + 2×TE): 57%
SSTR2 expression (effect) (SSTR2 [2]; BON-1 cells, monotherapies and combined application): increased
SSTR2 gene expression (effect) (SSTR2 [2]; QGP-1 cells): induced
